We go through 4 compounds from patent publication US20150290333A1, “PROCESS AND MATERIALS FOR MEDICAL APPLICATIONS” (NATIONAL UNIVERSITY OF SINGAPORE, priority 2012, published 2015).

The test system of the assay is human mesenchymal stem cells. In words: Pinocytosis inhibition studies. The following applies: PVP, Fc70, Fc400. Type of assay: cell-based. As to the method:
Cells were viewed with a FV300 laser scanning confocal microscope (Olympus, Japan). The excitation beam from a 543-nm HeNe ion laser (MellesGriot, Singapore) was focused by a water immersion objective (60×, NA1.2, Olympus) into the fluorescent sample. For organelle co-localization studies, an additional 488-nm Ar laser (MellesGriot, Singapore) was used to excite fluorescent organelle labels. Images were acquired with the Olympus FV300 software.
hMSCs (Lonza) were pre-incubated for 1 hour with 10 mM methyl beta cyclodextrin (MBCD, Sigma-Aldrich), 28 μM chlorpromazine (CPZ, Sigma-Aldrich), 300 μM amiloride (Am, Sigma-Aldrich), and 10 μM monensin (Mon, Sigma-Aldrich) in serum-free LGDMEM. The cells were then incubated for a further 1 hour with a mixture of each inhibitor and each TRITC-labelled polymer in serum-free LGDMEM.

In the case of `CN(C)CCCN1c2ccccc2Sc2ccc(Cl)cc21` [CPZ, chlorpromazine], the “Effect of pinocytosis inhibitor on uptake of TRITC-labelled polymers” value (shortened to “Effect of pinocytosis inhibitor”) (28 μM inhibitor) was “reduced polymer presence across the board, but trapped Fc in the worm-like compartments”.
As to `CC[C@@]1([C@@H]2O[C@@H]([C@H]3O[C@@](O)(CO)[C@H](C)C[C@@H]3C)C[C@@H]2C)CC[C@H]([C@]2(C)CC[C@]3(C[C@H](O)[C@@H](C)[C@@H]([C@@H](C)[C@@H](OC)[C@H](C)C(=O)O)O3)O2)O1` [Monensin, monensin], under “10 μM inhibitor”, the “Effect of pinocytosis inhibitor” value is “did not inhibit uptake of polymers but arrested them in a seam of vesicles at the periphery of the cells”.
Turning to `N=C(N)NC(=O)c1nc(Cl)c(N)nc1N` [Am, amiloride], for the setting “300 μM inhibitor”, the “Effect of pinocytosis inhibitor” value was “no significant effects”.
For methyl-beta-cyclodextrin [MβCD], the “Effect of pinocytosis inhibitor” value (10 mM inhibitor) is reported as “completely inhibited uptake of all polymers”.
